Measured values from ChEMBL document CHEMBL4033742, “Novel 3-fluoro-6-methoxyquinoline derivatives as inhibitors of bacterial DNA gyrase and topoisomerase IV” (Bioorg Med Chem Lett, 2017).
In brackets after ≈: the same amount, converted by molar mass.

Key:
[1] = tested on: Staphylococcus aureus; assay: Antibacterial activity against fluoroquinolone-sensitive Staphylococcus aureus 1146; type: functional
[2] = Inhibition of Staphylococcus aureus DNA topoisomerase 4
[3] = target: Voltage-gated inwardly rectifying potassium channel KCNH2 (Homo sapiens, UniProt Q12809); assay: Inhibition of human ERG
Sequence of Voltage-gated inwardly rectifying potassium channel KCNH2 (Q12809 whole entry): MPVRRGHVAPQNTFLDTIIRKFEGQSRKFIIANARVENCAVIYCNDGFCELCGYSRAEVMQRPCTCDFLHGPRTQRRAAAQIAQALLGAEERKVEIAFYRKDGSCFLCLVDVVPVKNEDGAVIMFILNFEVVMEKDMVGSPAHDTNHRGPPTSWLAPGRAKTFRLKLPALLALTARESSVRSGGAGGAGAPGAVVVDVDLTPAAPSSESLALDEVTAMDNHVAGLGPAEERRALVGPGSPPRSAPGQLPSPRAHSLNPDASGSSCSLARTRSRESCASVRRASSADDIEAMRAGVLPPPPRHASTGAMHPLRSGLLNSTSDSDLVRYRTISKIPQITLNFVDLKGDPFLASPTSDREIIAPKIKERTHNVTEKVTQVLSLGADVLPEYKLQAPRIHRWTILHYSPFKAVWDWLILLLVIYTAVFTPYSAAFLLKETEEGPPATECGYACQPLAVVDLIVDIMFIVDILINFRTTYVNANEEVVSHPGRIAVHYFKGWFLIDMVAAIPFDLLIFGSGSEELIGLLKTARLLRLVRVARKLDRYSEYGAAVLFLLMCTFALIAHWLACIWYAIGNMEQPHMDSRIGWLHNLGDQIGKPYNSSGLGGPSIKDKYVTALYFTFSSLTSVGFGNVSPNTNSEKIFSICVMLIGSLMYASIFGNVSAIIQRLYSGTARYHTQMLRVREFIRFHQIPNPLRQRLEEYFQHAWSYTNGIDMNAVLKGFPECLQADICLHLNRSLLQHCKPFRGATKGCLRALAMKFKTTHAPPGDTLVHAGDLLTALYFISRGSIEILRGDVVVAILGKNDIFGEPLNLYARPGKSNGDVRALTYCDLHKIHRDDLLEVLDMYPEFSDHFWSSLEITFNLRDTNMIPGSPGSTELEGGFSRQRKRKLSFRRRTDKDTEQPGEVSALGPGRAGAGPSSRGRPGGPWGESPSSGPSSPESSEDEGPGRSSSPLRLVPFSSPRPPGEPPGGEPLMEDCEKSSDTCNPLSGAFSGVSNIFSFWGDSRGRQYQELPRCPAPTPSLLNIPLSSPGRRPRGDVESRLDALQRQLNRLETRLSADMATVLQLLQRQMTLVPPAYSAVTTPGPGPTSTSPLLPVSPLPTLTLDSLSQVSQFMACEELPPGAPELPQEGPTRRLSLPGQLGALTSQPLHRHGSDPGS

[4] = Inhibition of Staphylococcus aureus DNA gyrase
[5] = tested on: Staphylococcus aureus; assay: Antibacterial activity against Staphylococcus aureus containing DNA gyrase M121K mutations; type: functional
[6] = tested on: Staphylococcus aureus; assay: Antibacterial activity against Staphylococcus aureus containing DNA gyrase D83N mutations; type: functional
[7] = tested on: Staphylococcus aureus; assay: Antibacterial activity against fluoroquinolone-resistant Staphylococcus aureus 1095; type: functional
[8] = tested on: Staphylococcus aureus; assay: Antibacterial activity against Staphylococcus aureus; type: functional
[9] = tested on: Streptococcus pyogenes; assay: Antibacterial activity against Streptococcus pyogenes; type: functional
[10] = Stability assessed as increase in metabolism rate under in-vitro conditions; type: physicochemical
[11] = Ratio of fAUC in fluoroquinolone-resistant Staphylococcus aureus infected mouse neutropenic thigh model to MIC for fluoroquinolone-resistant Staphylococcus aureus
[12] = Volume of distribution at steady state in rat at 2 mg/kg, iv; type: ADME, organism-based; conditions: in vivo, read-out: Vdss
[13] = Half life in rat at 2 mg/kg, iv; type: ADME, organism-based; conditions: in vivo
[14] = Fraction unbound in human plasma; type: ADME, cell-free
[15] = Fraction unbound in rat plasma; type: ADME, cell-free
[16] = Volume of distribution at steady state in mouse at 10 mg/kg, iv; type: ADME, organism-based; conditions: in vivo, read-out: Vdss
[17] = tested on: Staphylococcus aureus; assay: Antibacterial activity against fluoroquinolone-resistant Staphylococcus aureus infected in mouse neutropenic thigh model assessed as static dose required for bacterial stasis; type: functional
[18] = Clearance in mouse at 10 mg/kg, iv; type: ADME, organism-based; conditions: in vivo
[19] = tested on: Cavia porcellus; assay: Cardiotoxicity in anesthetized guinea pig model assessed as increase in cardiac alternans at fCmax level; type: toxicity
[20] = Clearance in rat at 2 mg/kg, iv; type: ADME, organism-based; conditions: in vivo
[21] = tested on: Cavia porcellus; assay: fCmax in anesthetized guinea pig model; type: ADME
[22] = Half life in mouse at 10 mg/kg, iv; type: ADME, organism-based; conditions: in vivo
[23] = Fraction unbound in mouse plasma; type: ADME, cell-free
[24] = tested on: Cavia porcellus; assay: Cardiotoxicity in anesthetized guinea pig model assessed as prolongation of monophasic action potential duration at fCmax level; type: toxicity
[25] = Cmax in human; type: ADME

Compound	MIC [1]	IC50 [2]	IC50 [3]	IC50 [4]	MIC [5]	MIC [6]	MIC [7]	MIC90 [8]	MIC90 [9]	other results
COc1ccc2ncc(F)c([C@@H](O)CC[C@@H]3CCN(C4CC(c5cccc(F)c5F)C4)C[C@@H]3C(=O)O)c2c1 (stereo not given in full)	≤ 0.0625 µg/mL	7.5 µM	25 µM	0.78 µM	4 µg/mL (≈ 7.57 µM)	8 µg/mL (≈ 15.1 µM)	≤ 0.0625 µg/mL			
COc1ccc2ncc(F)c([C@@H](O)CC[C@@H]3CCN(C4CC(c5ncccc5F)C4)C[C@@H]3C(=O)O)c2c1 (stereo not given in full)	0.125 µg/mL (≈ 0.244 µM)	30 µM	10.7 µM	6.25 µM	32 µg/mL (≈ 62.6 µM)	32 µg/mL (≈ 62.6 µM)	0.5 µg/mL (≈ 0.977 µM)	1 µg/mL (≈ 1.95 µM)	2 µg/mL (≈ 3.91 µM)	
COc1ccc2ncc(F)c([C@@H](O)CC[C@@H]3CCN(C4CC(c5cccc(F)c5)C4)C[C@@H]3C(=O)O)c2c1 (stereo not given in full)	≤ 0.0625 µg/mL	19 µM		0.78 µM	16 µg/mL (≈ 31.3 µM)	16 µg/mL (≈ 31.3 µM)	0.25 µg/mL (≈ 0.49 µM)	0.25 µg/mL (≈ 0.49 µM)	0.5 µg/mL (≈ 0.979 µM)	
COc1ccc2ncc(F)c([C@@H](O)CC[C@@H]3CCN(C4CC(c5cc(F)cc(F)c5F)C4)C[C@@H]3C(=O)O)c2c1 (stereo not given in full)	≤ 0.0625 µg/mL	4.7 µM		1.56 µM	2 µg/mL (≈ 3.66 µM)	1 µg/mL (≈ 1.83 µM)	≤ 0.0625 µg/mL			Stability [10]: Unstable
COc1ccc2ncc(F)c(C[C@H](O)[C@@H]3CC[C@@H](NCc4cc5c(nn4)OCCS5)CO3)c2n1										Ratio [11]: 43
COc1ccc2ncc(F)c([C@@H](O)CC[C@@H]3CCN(C4CC(c5cc(F)ccc5F)C4)C[C@@H]3C(=O)O)c2c1 (stereo not given in full)	0.088 µg/mL (≈ 0.166 µM)	5.47 µM	85.9 µM	0.977 µM	2 µg/mL (≈ 3.78 µM)	3.4 µg/mL (≈ 6.43 µM)	0.11 µg/mL (≈ 0.208 µM)	0.125 µg/mL (≈ 0.236 µM)	0.25 to 0.5 µg/mL (≈ 0.473 to 0.946 µM)	Vd [12]: 1.82 L/kg; half-life [13]: 40.8 min; fraction unbound [14]: 0.054; fraction unbound [15]: 0.197; Vd [16]: 1.24 L/kg; Activity [17]: 79.7 to 82.8 mg/kg/day; clearance [18]: 13.7 mL/min/kg; Activity [19]: Non-Toxic; clearance [20]: 30.9 mL/min/kg; Ratio [11]: 39; fCmax [21]: 27.5 µM; half-life [22]: 63 min; fraction unbound [23]: 0.201; Activity [24]: Non-Toxic
COc1ccc2ncc(F)c([C@@H](O)CC[C@@H]3CCN(C4CC(c5cc(F)cc(F)c5)C4)C[C@@H]3C(=O)O)c2c1 (stereo not given in full)	0.125 µg/mL (≈ 0.236 µM)	6.25 µM		1.2 µM		5.7 µg/mL (≈ 10.8 µM)	0.35 µg/mL (≈ 0.662 µM)	0.25 µg/mL (≈ 0.473 µM)	1 µg/mL (≈ 1.89 µM)	
COc1ccc2ncc(F)c([C@@H](O)CC[C@@H]3CCN(C4CC(c5cncc(F)c5)C4)C[C@@H]3C(=O)O)c2c1 (stereo not given in full)	2 µg/mL (≈ 3.91 µM)	> 120 µM		4.7 µM		> 64 µg/mL	32 µg/mL (≈ 62.6 µM)			
COc1ccc2ncc(F)c([C@@H](O)CC[C@@H]3CCN(C4CC(c5ccno5)C4)C[C@@H]3C(=O)O)c2c1 (stereo not given in full)	0.5 µg/mL (≈ 1.03 µM)	35.1 µM	> 300 µM	2.68 µM		> 64 µg/mL	4 µg/mL (≈ 8.27 µM)			
COc1ccc2ncc(F)c([C@@H](O)CC[C@@H]3CCN(C4CC(c5ccc(F)s5)C4)C[C@@H]3C(=O)O)c2c1 (stereo not given in full)	≤ 0.0625 µg/mL	19 µM		0.78 µM	16 µg/mL (≈ 31 µM)	16 µg/mL (≈ 31 µM)	≤ 0.0625 µg/mL	0.125 µg/mL (≈ 0.242 µM)	0.5 µg/mL (≈ 0.968 µM)	
COc1ccc2ncc(F)c([C@@H](O)CC[C@@H]3CCN(C4CC(c5ccccc5)C4)C[C@@H]3C(=O)O)c2c1 (stereo not given in full)	0.069 µg/mL (≈ 0.14 µM)	15.9 µM	22.3 µM	1.15 µM	8 µg/mL (≈ 16.2 µM)	22.6 µg/mL (≈ 45.9 µM)	0.125 µg/mL (≈ 0.254 µM)	0.25 µg/mL (≈ 0.508 µM)	1 µg/mL (≈ 2.03 µM)	Vd [12]: 1.82 L/kg; half-life [13]: 68.4 min; fraction unbound [14]: 0.122 to 0.211; fraction unbound [15]: 0.277 to 0.334; Vd [16]: 1.01 L/kg; Activity [17]: 92.1 mg/kg/day; clearance [18]: 17.3 mL/min/kg; clearance [20]: 18.4 mL/min/kg; half-life [22]: 40.2 min; fraction unbound [23]: 0.15 to 0.158
O=c1ccc2ncc(=O)n3c2n1C[C@H]3CN1CCC(NCc2cc3c(cn2)OCCC3)CC1 [GEPOTIDACIN]			1310 µM			8 to 32 µg/mL (≈ 17.8 to 71.3 µM)				Cmax [25]: 7000 to 13000 ng/mL; Ratio [11]: 13.4
CN[C@H](CC(C)C)C(=O)N[C@H]1C(=O)N[C@@H](CC(N)=O)C(=O)N[C@H]2C(=O)N[C@H]3C(=O)N[C@H](C(=O)N[C@H](C(=O)O)c4cc(O)cc(O)c4-c4cc3ccc4O)[C@H](O)c3ccc(c(Cl)c3)Oc3cc2cc(c3O[C@@H]2O[C@H](CO)[C@@H](O)[C@H](O)[C@H]2O[C@H]2C[C@](C)(N)[C@H](O)[C@H](C)O2)Oc2ccc(cc2Cl)[C@H]1O [VANCOMYCIN]										Activity [17]: 29 mg/kg/day
